From patent publication US9938240B2, “Fluorinated derivatives of 3-hydroxypyridin-4-ones” (Apotex Technologies Inc., priority 2009, dated 2018)
One block for each compound: values may come before it.

Columns and labels:
[1] = Stepwise formation constants for Cu-ligand system by potentiometric titration; type: physicochemical; details: for pCu^2+: pH 7.4, ligand 10 μM, metal 1 μM
Description: In a typical experiment, the sample solution was prepared by the following method: Apo7041 (126.1 mg, 0.50 mmol) was weighed into a 50 mL volumetric flask, and about 35 mL of a mixed solvent (0.1 M NaCl aqueous:MeOH, 1:1, v:v) was added. The mixture was sonicated for 10 min to give a clear colorless solution. The copper stock solution (atomic absorption standard, Aldrich, 6.33 mL, 0.10 mmol) was pipetted into the solution. More of the mixed solvent was added to volume and the resulting solution was vortexed to mix. The molar ratio between the total copper and the total Apo7041 was 1/5. 40 mL of the solution was transferred into a T70 titration cell by using a 10 mL digital pipet. A 6.000 N sodium hydroxide solution (300 μL) was added, and the pH (12.17) of the solution was recorded. The solution was allowed to equilibrate at 22° C. for 5 min.
The solution was then titrated against a 6.000 N hydrochloric acid solution at 22° C. by using a Mettler Toledo T70 autotitrator, until the pH reached 1.5. The volume of acid added and the pH reading were recorded. Thus, 533 measurements were taken for this experiment.
(§1) The data set of pH vs. acid volume for Cu-Apo7041 system was analyzed using Hyperquad 2000 software (version 2.1, Peter Gans, University of Leeds). The formation constants for Cu-Apo7041 system were optimized using the model shown in the first column of Table 29C. The results are shown in the second and third column.
(§2) pM^n+ is defined as −log [M(H2O)m]^n+ at physiological conditions, i.e.: pH 7.4, a ligand concentration of 10 μM, and a metal concentration of 1 μM. To calculate pM^n+ for a MLn system, βn and pKa values are needed (βn are the formation constants for M^n++n L^−⇄MLn; pKa are the equilibrium constants for L^−+n H^+⇄LHn^(n-1)+). The pM^n+ is calculated using the HySS software (HYSS© 2000 Protonic Software).

[2] = Stepwise formation constants for Zn-ligand system by potentiometric titration; type: physicochemical; details: for pZn^2+: pH 7.4, ligand 10 μM, metal 1 μM
Description: In a typical experiment, the sample solution was prepared by the following method: Apo7041 (126.3 mg, 0.50 mmol) was weighed into a 50 mL volumetric flask, and about 35 mL of a mixed solvent (0.1 M NaCl aqueous:MeOH, 1:1, v:v) was added. The mixture was sonicated for 10 min to give a clear colorless solution. The zinc stock solution (atomic absorption standard, Aldrich, 6.64 mL, 0.10 mmol) was pipetted into the solution followed by addition of sodium hydroxide solution (6.000 N, 300 μL). More of the mixed solvent was added to volume and the resulting solution was vortexed to mix. The molar ratio between the total zinc and the total Apo7041 was 1/5. 40 mL of the solution was transferred into a T70 titration cell by using a 10 mL digital pipet. A 6.000 N sodium hydroxide solution (160 μL) was added, and the pH (11.95) of the solution was recorded. The solution was allowed to equilibrate at 22° C. for 5 min.
The solution was then titrated against a 6.000 N hydrochloric acid solution at 22° C. by using a Mettler Toledo T70 autotitrator, until the pH reached 1.5. The volume of acid added and the pH reading were recorded. Thus, 523 measurements were taken for this experiment.
as §1, with “Zn-Apo7041” for “Cu-Apo7041”, “the table 29D.” for “Table 29C.”
as §2

[3] = Distribution coefficient determination, D7.4 (1-octanol / K2HPO4 buffer); type: physicochemical; details: 1-octanol / K2HPO4 buffer 50 mM pH 7.4
Description: K2HPO4 buffer (50 mM, pH=7.4) and 1-octanol were used as the aqueous phase and the organic phase, respectively. The K2HPO4 buffer and 1-octanol were mixed, and pre-saturated with each other before use.
In a typical experiment, an aqueous solution of Apo6995 (3-hydroxy-2-methyl-1-(2,2,2-trifluoroethyl)pyridin-4(1H)-one) was prepared by weighing out 3 mg of the compound into a 10-mL test-tube. It was then mixed with K2HPO4 buffer (2 mL) and sonicated for 30 minutes with frequent vortexing. The solution was then filtered through HPLC syringe filter (4 mm PVDF syringe filter 0.45 μM) to obtain the aqueous solution.
One mL of this aqueous solution was pipetted out into another 10-mL test-tube and mixed with 1 mL of 1-octanol. The mixture was then vortexed for 1 hour. The solution was centrifuged at 2000 rpm for 10 minutes. A small amount of the lower aqueous layer was carefully pipetted out and analyzed by HPLC to obtain the peak height (HF). The distribution coefficient, D7.4, was calculated using the following equation: D7.4=(HI−HF)/HF.

[4] = system: SV-NRA cells; assay: MPP+ treated SV-NRA cell viability (MTT); type: cell-based; details: 5 mM MPP+ treated SV-NRA cells, 20 μM, 24 h, p<0.05
Description: SV-NRAs cells were plated in a 96-well plate at a density of 10,000 cells/well in 100 μL of DME […], high glucose 1× liquid (Sigma) supplemented with 10% heat-inactivated FBS and 1× antibiotic/antimycotic solution (Sigma). On the next day, the cells were washed with EMEM media (Eagle's minimal essential media; phenol red, serum and glutamine free) and treated for 24 h with 5 mM MPP^+ (1-methyl-4-phenylpyridinium) in EMEM media in the presence or absence of a tested iron chelating compound. All compounds were tested at the following concentrations: 10 μM, 20 μM, and 40 μM. After 24 h of incubation, cell viability was determined with MTT ((3-(4,5-Dimethylthiazol-2-yl)-2,5-diphenyltetrazolium bromide, a yellow tetrazole) assay which measures mitochondrial activity (Carmichael et al. Cancer Research 1987, 47, 936-942). MTT solution (10 μL, 5 mg/mL) was added to the wells and incubated for 2 h. Formazan product was solubilized with 100 μL of 10% SDS (sodium dodecyl sulphate) in 0.01M HCl. Optical density was determined at 570 nm using Multiscan Ascent plate reader (Labsystems) and data collected were corrected for background signal measured at 650 nm. All data are expressed as % of control.
Co-treatment with iron chelators protected the cells from MPP^+ toxicity.

[5] = 0.1M aqueous NaCl/MeOH, 1/1, v/v
[6] = 0.1M aqueous NaCl/MeOH, 1/1, v/v, listed as drawing 104

SMILES: CN(C)C(c1c(O)c(=O)ccn1C)C(F)(F)F (stereo not shown) [Apo7041, 2-[1-(dimethylamino)-2,2,2-trifluoroethyl]-3-hydroxy-1-methylpyridin-4(1H)-one]
Log β120 (Cu2+) [1, 5]: 17.3 | Log β121 (Cu2+) [1, 5]: 23.0 | Log β122 (Cu2+) [1, 5]: 27.9 | Logβ111 (Cu2+) [1, 5]: Logβ111 = 14.1 | Log β120 (Cu2+) [1, 6]: Logβ120 = 17.3 | Log β121 (Cu2+) [1, 6]: Logβ121 = 23.0 | Log β122 (Cu2+) [1, 6]: Logβ122 = 27.9 | pCu^2+ [1]: pCu^2+ = 7.7 | Log β111 (Zn2+) [2, 5]: 13.1 | Log β120 (Zn2+) [2, 5]: 13.2 | Log β121 (Zn2+) [2, 5]: 19.6 | Log β111 (Zn2+) [2, 6]: Logβ111 = 13.1 | Log β120 (Zn2+) [2, 6]: Logβ120 = 13.2 | Log β121 (Zn2+) [2, 6]: Logβ121 = 19.6 | pZn^2+ [2]: pZn^2+ = 6.0

SMILES: CN(C)Cc1c(O)c(=O)ccn1CC(F)(F)F [Apo7067, 2-[(dimethylamino)methyl]-3-hydroxy-1-(2,2,2-trifluoroethyl)pyridin-4(1H)-one]
D7.4 [3]: 2.82 | logD ([3]; read-out: Log D7.4): 0.45

D7.4 [3]: 0.17 | Log D7.4 [3]: −0.77 | Log β120 (Cu2+) [1, 5]: 20.5 | Logβ1 (Cu2+) [1, 5]: Logβ1 = 10.8 | Logβ2 (Cu2+) [1, 5]: Logβ2 = 20.5 | pCu^2+ [1]: pCu^2+ = 9.9 | Log β120 (Zn2+) [2, 5]: 15.0 | Logβ1 (Zn2+) [2, 5]: Logβ1 = 8.1 | Logβ2 (Zn2+) [2, 5]: Logβ2 = 15.0 | pZn^2+ [2]: pZn^2+ = 6.3
SMILES: Cc1c(O)c(=O)ccn1C [Deferiprone, 3-hydroxy-1,2-dimethylpyridin-4(1H)-one, reference compound]
increase in cell viability [4]: about 20%
